{"source": "patent US11931339B2", "about": "“Compositions and methods for treating tissue injury” (CASE WESTERN RESERVE UNIVERSITY, priority 2018, dated 2024)", "key": {"SCoR−/− mice": {"system": "SCoR−/− mice", "assay": "Ascorbate-supplemented chow in SCoR−/− mice: ascorbate levels and I/R-induced AKI", "format": "in vivo", "conditions": "chow with 1% ascorbate for six weeks, FIGS. 7b-c", "procedure": "AKI surgery was carried out as described herein. Mice of similar age (9-11 weeks) and body weight (male: 25-28 g; female: 22-25 g) were used for surgery. The mice were anesthetized with isoflurane (1-3%) in oxygen and then anesthesia was maintained with isoflurane (0.75-2.0%) and adjusted as needed. The fur in the surgical area was removed with clippers and the skin sterilized with 3 times alternating washes of betadine […] and alcohol. The mouse was placed on a thermostatic station during surgery. The skin and muscle were cut open along the back to expose both right and left kidneys. Gentle blunt dissection was performed through muscular layers to reveal the kidney and a Q-tip was used to mobilize and exteriorize the kidney. A 5-0 silk suture was used to clamp the pedicle to block the blood flow to the kidney to induce renal ischemia for 23 min in male mice or 50 min in female mice, then the sutures released to allow reperfusion. The identical steps were performed on the contra-lateral side. A silk suture was used to close the muscle layer of the incision followed by the closure of the skin wound with vicryl. […] Seram creatinine and BUN were determined after 24 hrs of reperfusion upon removal of the kidney (when larger volumes of blood can be collected). Seram creatinine and BUN were measured at University Hospital's Clinical Laboratories."}, "[1]": {"target": "T1, PKM2-C423/424A in HEK cells (Homo sapiens, UniProt P14618, C423A/C424A)", "T1 construct": "host or cells: HEK cells (endogenous PKM2 depleted by siRNA against the 3' UTR)", "T1 sequence (P14618 2-531 C423A/C424A)": "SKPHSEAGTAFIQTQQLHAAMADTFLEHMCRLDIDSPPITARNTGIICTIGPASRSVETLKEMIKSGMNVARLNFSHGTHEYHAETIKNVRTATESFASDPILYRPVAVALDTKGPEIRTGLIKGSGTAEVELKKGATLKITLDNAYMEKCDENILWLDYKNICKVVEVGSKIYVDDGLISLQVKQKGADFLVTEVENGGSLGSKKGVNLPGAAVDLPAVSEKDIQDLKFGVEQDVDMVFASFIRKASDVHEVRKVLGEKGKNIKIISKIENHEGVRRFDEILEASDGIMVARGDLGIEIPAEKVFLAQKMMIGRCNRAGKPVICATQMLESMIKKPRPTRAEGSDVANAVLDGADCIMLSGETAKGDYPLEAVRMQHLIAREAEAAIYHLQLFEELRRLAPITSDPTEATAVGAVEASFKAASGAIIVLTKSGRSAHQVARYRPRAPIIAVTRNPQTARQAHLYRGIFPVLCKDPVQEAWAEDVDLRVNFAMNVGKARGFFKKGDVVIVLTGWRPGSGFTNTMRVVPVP", "assay": "Activity of Myc-PKM2-C423/424A after NO (DETA-NO) treatment in HEK cells", "format": "cell-based", "conditions": "500 μM DETA-NO for 20 hr; FIG. 11b", "procedure": "(§1) HEK cell transfection was described herein. siRNA-mediated protein depletion was used in HEK cells. Two custom PKM2 siRNAs that target the 3′ UTR of PKM2 were obtained from Dharmacon. siRNA oligonucleotides (60 pmol/10 cm plate) were transfected into HEK cells using Lipofectamine RNAiMAX (Invitrogen) according to the manufacturer's protocol. After 24 hours, 5 μg pCMV-control, pCMV-PKM2-WT or pCMV-PKM2-C423A/424A were co-transfected with siRNA oligonucleotides (60 pmol/10 cm plate) into HEK cells using Lipofectamine 2000. After 24 hrs, cells were treated with 500 μM DETA-NO for 20 hr. Cells were then collected for assay.\nPKM activity was measured based on generation of pyruvate, which was oxidized by pyruvate oxidase to produce color (k=570 nm). To measure PKM2 activity in vitro, 250 ng recombinant PKM2-WT and PKM2-C423A/424A proteins were pre-incubated with substrate 2 μl fructose-1,6-bisphosphate (FBP)(250 μM) in 2 ml dialysis buffer [20 mM Tris-HCL (pH 7.9), 20% (v/v) glycerol, 0.1 M KCL, 0.2 mM EDTA], followed by dialysis to remove the free FBP in 2 L dialysis buffer. After 10 ng PKM2-FBP complex was treated with 200-300 μM SNO-CoA for 10 min at room temperature, the activity of PKM2 was measured. […] Extracts were clarified by centrifugation (20,000 g, 4° C., 20 min, ×2), and protein concentration was determined by bicinchoninic acid assay. […]"}, "[2]": {"system": "Myc-PKM2-WT and Myc-PKM2-C423/424A expressing HEK cells", "assay": "PEP accumulation in PKM2-expressing HEK cells after NO treatment", "format": "cell-based", "conditions": "HEK cells with endogenous PKM2 knocked down; 500 μM DETANO; FIG. 3h", "procedure": "as §1\n(§2) The amount of pyruvate was measured using Pyruvate Assay Kit (Sigma). Kidneys harvested from SCoR^+/+, SCoR^−/−, PKM2^+/+ or PKM2^−/− mice (sham operation or AKI) were mechanically homogenized in Pyruvate Assay Buffer (1 mg/5 μl buffer). After extracts were clarified by centrifugation (20,000 g, 4° C., 20 min, ×2), supernatant was used for assay. GHB in the serum of SCoR^+/+ and SCoR^−/− mice was measured following the GHB enzymatic assay kit from BUHLMANN. […] The amount of PEP, 6PG, ATP, ADP and serine were respectively measured using PEP Colorimetric/Fluorometric Assay Kit (Sigma), 6 phosphogluconate Assay kit (abeam), ATP Colorimetric/Fluorometric Assay Kit (Sigma), ADP Colorimetric/Fluorometric Assay Kit (Sigma) and DL-Serine Assay kit (Fluorometric) (Biovision)."}, "[3]": {"system": "Myc-PKM2-WT and Myc-PKM2-C423/424A expressing HEK cells", "assay": "6-phosphogluconate accumulation in PKM2-expressing HEK cells after NO treatment", "format": "cell-based", "conditions": "DETANO 500 μM, FIG. 11d", "procedure": "as §1, §2"}, "[4]": {"system": "Myc-PKM2-WT and Myc-PKM2-C423/424A HEK cells", "assay": "ADP/ATP ratio in PKM2-expressing HEK cells under NO treatment", "format": "cell-based", "conditions": "HEK cells under NO treatment (DETANO 500 μM); FIG. 12", "procedure": "as §1, §2"}, "recombinant PKM2": {"target": "T2, recombinant PKM2 (Homo sapiens, UniProt P14618)", "T2 construct": "6xHis (C); made in house; host or cells: E. coli BL21-CodonPlus", "assay": "PKM activity of recombinant PKM2 after SNO-CoA treatment", "format": "biochemical", "conditions": "PKM2-FBP complex, 200-300 μM SNO-CoA for 10 min at room temperature; FIG. 3d", "procedure": "PKM activity was measured based on generation of pyruvate, which was oxidized by pyruvate oxidase to produce color (k=570 nm). To measure PKM2 activity in vitro, 250 ng recombinant PKM2-WT and PKM2-C423A/424A proteins were pre-incubated with substrate 2 μl fructose-1,6-bisphosphate (FBP)(250 μM) in 2 ml dialysis buffer [20 mM Tris-HCL (pH 7.9), 20% (v/v) glycerol, 0.1 M KCL, 0.2 mM EDTA], followed by dialysis to remove the free FBP in 2 L dialysis buffer. After 10 ng PKM2-FBP complex was treated with 200-300 μM SNO-CoA for 10 min at room temperature, the activity of PKM2 was measured. To measure PKM2 activity in kidney, kidneys were mechanically homogenized in lysis buffer [50 mM phosphate buffer, pH 7.0, 150 mM NaCl, 0.1 mM EDTA, 0.1 mM DTPA, 1 mM PMSF, and protease inhibitor mixture (Roche)]. Extracts were clarified by centrifugation (20,000 g, 4° C., 20 min, ×2), and protein concentration was determined by bicinchoninic acid assay. 10 μl (0.1 μg/μl) lysate was used to measure PKM2 activity. Assay of PKM2 activity was followed the protocol of Pyruvate Kinase Activity Colorimetric/Fluorometric Assay Kit from Biovison In."}, "recombinant PKM1": {"target": "recombinant PKM1 (Homo sapiens, UniProt P14618)", "sequence (P14618 1-531 isoform P14618-2, species assumed)": "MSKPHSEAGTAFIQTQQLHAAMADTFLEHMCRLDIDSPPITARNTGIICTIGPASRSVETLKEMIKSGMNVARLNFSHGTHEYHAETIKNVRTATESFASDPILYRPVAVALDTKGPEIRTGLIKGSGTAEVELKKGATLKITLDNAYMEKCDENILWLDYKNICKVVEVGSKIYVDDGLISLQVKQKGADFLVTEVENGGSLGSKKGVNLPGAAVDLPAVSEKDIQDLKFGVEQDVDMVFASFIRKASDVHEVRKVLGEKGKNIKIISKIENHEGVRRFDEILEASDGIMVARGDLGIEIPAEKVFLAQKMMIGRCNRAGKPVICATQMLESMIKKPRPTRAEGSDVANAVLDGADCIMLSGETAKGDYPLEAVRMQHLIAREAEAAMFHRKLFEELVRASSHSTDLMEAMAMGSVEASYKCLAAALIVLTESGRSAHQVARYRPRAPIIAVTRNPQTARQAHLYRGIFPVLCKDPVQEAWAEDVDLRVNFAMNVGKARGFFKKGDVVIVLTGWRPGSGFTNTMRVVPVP", "assay": "Activity of recombinant PKM1 after SNO-CoA treatment", "format": "biochemical", "conditions": "FIG. 8"}, "recombinant PKLR": {"target": "recombinant PKLR (Homo sapiens, UniProt P30613)", "sequence (P30613 whole entry, species assumed)": "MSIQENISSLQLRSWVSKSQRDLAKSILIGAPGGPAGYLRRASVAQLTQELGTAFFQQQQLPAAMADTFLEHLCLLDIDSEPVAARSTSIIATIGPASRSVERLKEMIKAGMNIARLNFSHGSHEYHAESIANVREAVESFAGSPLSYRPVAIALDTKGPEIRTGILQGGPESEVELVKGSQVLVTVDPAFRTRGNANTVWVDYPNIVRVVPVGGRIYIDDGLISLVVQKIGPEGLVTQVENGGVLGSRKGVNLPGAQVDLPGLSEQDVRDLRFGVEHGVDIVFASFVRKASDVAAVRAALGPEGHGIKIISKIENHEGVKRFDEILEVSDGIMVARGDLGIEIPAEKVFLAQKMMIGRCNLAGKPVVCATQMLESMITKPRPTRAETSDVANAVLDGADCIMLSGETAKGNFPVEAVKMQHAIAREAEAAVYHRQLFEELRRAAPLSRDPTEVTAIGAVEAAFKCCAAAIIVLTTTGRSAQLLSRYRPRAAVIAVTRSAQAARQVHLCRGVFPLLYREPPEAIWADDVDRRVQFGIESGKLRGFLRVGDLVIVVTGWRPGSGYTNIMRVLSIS", "assay": "Activity of recombinant PKLR after SNO-CoA treatment", "format": "biochemical", "conditions": "FIG. 8"}, "[5]": {"target": "T3, recombinant PKM2-C423/424A (Homo sapiens, UniProt P14618, C423A/C424A)", "T3 construct": "6xHis (C); made in house; host or cells: E. coli BL21-CodonPlus", "T3 sequence (P14618 2-531 C423A/C424A)": "as the sequence (P14618 2-531 C423A/C424A) above", "assay": "Activity of recombinant PKM2-C423/424A after SNO-CoA treatment", "format": "biochemical", "conditions": "in vitro, 200-300 μM SNO-CoA for 10 min; FIG. 3f", "source_text": "The mammalian cell expression plasmid pCMV-PKM2 was obtained from Origene. Mammalian cell expression plasmid pcDNA-SCoR was constructed by PCR-cloning. pCMV-PKM2 cysteine mutants were generated by QuikChange II Site-Directed Mutagenesis Kit (Agilent). For purification of recombinant PKM2, cDNA encoding PKM2-WT or PKM2-C423A/424A were cloned into pET21b (Novagen) to introduce a C-terminal 6×His tag on the expressed protein. The recombinant PKM2 proteins were purified from BL21-CodonPlus Competent E. coli Cells (Agilent). Overnight E. coli cultures were sub-cultured into 1 L of LB medium at 5%. At OD600 of 0.5, cultures were induced with […] IPTG and grown for a further 4 hr at 28° C. Cultures were centrifuged at 4000 g for 10 min to harvest the cells. Cell pellets from 1 L cultures were lysed in 10 mL of 1×PBS buffer containing 1 mM PMSF and protease-inhibitor cocktail by sonication. After centrifugation at 14500 g for 20 min, the supernatant was collected. […]\nPKM activity was measured based on generation of pyruvate, which was oxidized by pyruvate oxidase to produce color (k=570 nm). […] After 10 ng PKM2-FBP complex was treated with 200-300 μM SNO-CoA for 10 min at room temperature, the activity of PKM2 was measured. […] Extracts were clarified by centrifugation (20,000 g, 4° C., 20 min, ×2), and protein concentration was determined by bicinchoninic acid assay. […]"}, "tetrameric PKM2-WT": {"target": "T4, tetrameric PKM2-WT (Homo sapiens, UniProt P14618)", "T4 construct": "6xHis (C); made in house; host or cells: E. coli BL21-CodonPlus", "T4 sequence (P14618 whole entry, species assumed)": "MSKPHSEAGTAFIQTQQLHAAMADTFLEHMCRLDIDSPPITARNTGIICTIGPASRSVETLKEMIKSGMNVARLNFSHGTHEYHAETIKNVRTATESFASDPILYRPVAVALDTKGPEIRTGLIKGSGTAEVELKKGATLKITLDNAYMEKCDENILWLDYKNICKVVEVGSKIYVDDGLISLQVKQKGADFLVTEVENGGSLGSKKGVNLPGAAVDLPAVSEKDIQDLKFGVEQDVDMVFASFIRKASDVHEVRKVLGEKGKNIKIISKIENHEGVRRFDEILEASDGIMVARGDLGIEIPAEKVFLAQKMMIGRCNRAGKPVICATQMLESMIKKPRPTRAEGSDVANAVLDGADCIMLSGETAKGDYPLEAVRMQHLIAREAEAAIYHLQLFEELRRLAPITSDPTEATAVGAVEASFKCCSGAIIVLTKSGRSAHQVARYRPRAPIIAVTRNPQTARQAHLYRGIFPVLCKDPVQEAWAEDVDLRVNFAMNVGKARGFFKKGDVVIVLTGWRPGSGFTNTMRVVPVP", "assay": "PKM2 dimer and tetramer formation in vitro, PKM2-WT", "format": "biochemical", "conditions": "purified proteins, 200-300 μM SNO-CoA for 10 min; FIG. 3g", "procedure": "Assay of PKM2 dimer and tetramer in vitro follows previous descriptions. In brief, after 40 ng PKM2-FBP complex was treated with 200-300 μM SNO-CoA for 10 min at room temperature, 5 μl fresh glutaraldehyde (50%) was added to a reaction mixture containing 100 mM HEPES (pH 7.5) for 5 min at 37° C. The cross-linking reaction was terminated by addition of 5 μl 1M Tris-HCL (PH 8.0). Assay of PKM2 dimer and tetramer in situ was carried out as described previously. DSS (disuccinimidyl suberate; Thermo Scientific) (final 500 μM) was added to cells for 30 min at room temperature to cross-link proteins. Cells were lysed in RIPA Buffer and protein concentration was determined by bicinchoninic acid assay. Equal amounts of protein were separated by 4-15% Criterion™ Precast Midi Protein Gel and monomer, dimer and tetramer forms of PKM2 were detected with PKM2 antibody."}}}
{"compound": "O=C1O[C@H]([C@@H](O)CO)C(O)=C1O", "note": "[ascorbate, ascorbic acid]", "values": [{"measurement": "AKI phenotype (serum creatinine and BUN)", "setting": "SCoR−/− mice", "value": "no effect on the AKI phenotype"}]}
{"compound": "NCCN(CCN)/[N+]([O-])=N/O", "note": "[DETA-NO]", "values": [{"measurement": "activity of PKM2-C423/424A in HEK cells", "setting": "[1]", "value": "cannot be inhibited"}, {"measurement": "accumulation of PEP in Myc-PKM2-C423/424A cells", "setting": "[2]", "value": "not Myc-PKM2-C423/424A cells"}, {"measurement": "accumulation of PEP in Myc-PKM2-WT cells", "setting": "[2]", "value": "promoted the accumulation of PEP"}, {"measurement": "accumulation of 6-phosphogluconate in Myc-PKM2-WT vs. Myc-PKM2-C423/424A cells", "setting": "[3]", "value": "promotes accumulation of 6-phosphogluconate"}, {"measurement": "ADP/ATP ratio between Myc-PKM2-WT and Myc-PKM2-C423/424A cells", "setting": "[4]", "value": "no different"}]}
{"compound": "CC(C)(COP(=O)(O)OP(=O)(O)OC[C@H]1O[C@@H](n2cnc3c(N)ncnc32)[C@H](O)[C@@H]1OP(=O)(O)O)[C@@H](O)C(=O)NCCC(=O)NCCSN=O", "note": "[SNO-CoA, S-nitroso-CoA]", "values": [{"measurement": "activity of recombinant PKM2 after SNO-CoA treatment", "setting": "recombinant PKM2", "value": "directly inhibited"}, {"measurement": "activity of recombinant PKM1 after SNO-CoA treatment", "setting": "recombinant PKM1", "value": "not other PK isoforms (PKM1 or PKLR), was directly inhibited"}, {"measurement": "activity of recombinant PKLR after SNO-CoA treatment", "setting": "recombinant PKLR", "value": "not other PK isoforms (PKM1 or PKLR), was directly inhibited"}, {"measurement": "activity of PKM2-C423/424A after SNO-CoA treatment", "setting": "[5]", "value": "cannot be inhibited"}, {"measurement": "formation of tetrameric PKM2-WT", "setting": "tetrameric PKM2-WT", "value": "inhibited formation of tetrameric PKM2-WT"}]}
